Measurements reported in patent US20240307310A1, “STABILIZED SOLID ORAL PHARMACEUTICAL COMPOSITION OF VARENICLINE” (LUPIN LIMITED, priority 2021, published 2024).

Tests used:
[1] = cited from earlier work; for AI Limit: FDA recommended acceptable intake limit in drug products
[2] = Analysis of nitrosamine impurities (VC09, NDEA) in drug substance, blends and tablets; type: physicochemical; details: Table 2
[3] = Regulatory acceptable intake (AI) limits for nitrosamine impurities; design: species or system human; details: determined in view of the EMA limit
Description: FDA recommends the following acceptable intake (Al) limits fir the nitrosamine impurities a s given in the below table:
The conversion of Al limit into ppm varies by product and is calculated based on a drug's maximum daily dose (MDD) as reflected in the drug label (ppm=Al (ng)/MDD(mg)).
These limits are applicable only if a drug product contains a single nitrosamine.
Apart from NDMA there is another nitrosamine impurity, N-nitroso-varenicline which is usually found in APIs as well as finished product of varenicline. As per the recent update, USFDA has provided acceptable intake limit of N-nitroso-varenicline (VC09) from 37 ng/day to 185 ng/day, in finished product of varenicline.
Additionally, European Medicines Agency (EMA) has also provided the daily acceptable intake limit for N-nitroso-varenicline impurity as 18 ng/day. In view of the above limit minimum daily intake limit for VC09 was determined as 9 ppm.

Row | Compound | AI Limit [1] [ng/day] | further results
1 | CN(C)N=O [NDMA, N-nitrosodimethylamine] | 96 | –
2 | CN(CCCC(=O)O)N=O [NMBA, N-nitroso-N-methyl-4-aminobutanoic acid] | 96 | –
3 | CCN(N=O)C(C)C [NIPEA, N-nitrosoisopropylethyl amine] | 26.5 | –
4 | Varenicline Tartrate [Drug Substance] | – | Nitrosamines Results in ppm, VC09 ([2]; 40/75, 7 days, open): 0.20 ppm; Nitrosamines Results in ppm, VC09 ([2]; 60° C, 7 days, open): 0.27 ppm; Nitrosamines Results in ppm, VC09 ([2]; Initial (Chantix tablets: condition not given)): 0.23 ppm
5 | CC(C)N(N=O)C(C)C [NDIPA, N-nitrosodiisopropylamine] | 26.5 | –
6 | O=NN1CC2CC(C1)c1cc3nccnc3cc12 [N-nitroso-varenicline] | – | minimum daily intake limit [3]: 9 ppm; daily acceptable intake limit ([1]; European Medicines Agency (EMA)): 18 ng/day
7 | CCN(CC)N=O [NDEA, N-nitrosodiethylamine] | 26.5 | –
